{"source": "patent US12029751B2", "about": "“Therapeutic agent for nervous system disease” (OSAKA UNIVERSITY, priority 2017, dated 2024)", "key": {"[1]": {"tested_on": "rat spinal cord injury model", "experiment": "Thermal algesimetry test in rat spinal cord injury model", "assay_type": "in vivo", "settings": "for Thermal algesimetry test, Time after spying infrared thermal stimulation: right sole", "experimental": "Six-week-old female Wistar rats were used. The rats were purchased from Charles River Laboratories Japan, Inc. (Yokohama, Japan). Anesthesia was performed as follows. A 1:10 dilution of a mixture of three anesthetic agents in physiological saline was administered by intraperitoneal injection. One dose consisted of 0.2 mg/kg of midazolam, 0.015 mg/kg of medetomidine, and 0.25 mg/kg of butorphanol. The rat was placed in a prone position on an operating table, and a dorsal midline incision was made. The T10 vertebral arch was removed to expose the posterior face of the spinal cord, and the left spinal cord was hemisected using a sharp-pointed surgical scalpel (spitz mess). The skin was sutured using a 4-0 nylon thread and the surgery was completed. A comparison was made among three groups: a methylcobalamin treatment group, an untreated group, and a sham group. Immediately after the surgical operation, an osmotic minipump filled with methylcobalamin (1 mg/kg/day) or physiological saline was placed for the methylcobalamin treatment group and the untreated group, respectively, and left in the left dorsal subcutaneous space. The sham group underwent only resection of the Th10 vertebral arch.\nEach rat was separately accommodated in a dedicated cage, an infrared thermal stimulation was applied to the right sole, and time until the rat retracted the hind limb was measured. To avoid damage to the skin, the stimulation was continued for 15 seconds at the maximum. The evaluations were performed before surgery, and at 7, 14, 21, and 28 days after the surgery."}, "[2]": {"tested_on": "rat sciatic nerve crush injury model", "experiment": "Nerve regeneration after sciatic nerve injury (axons, myelinated axons, myelination rate)", "assay_type": "in vivo", "settings": "for Myelination ratio / Number of axons / Number of myelinated axons: POD14", "from_the_text": "Six-week-old male Wistar rats (about 200 g) were used. The left sciatic nerve was exteriorized, and crush injury of the sciatic nerve was made on the proximal side by forceps. The nerve was crushed for 10 seconds three times at 10-second intervals. The fascia and skin were sutured using 3-0 nylon. A non-injury group which underwent only sciatic nerve exposure, an untreated group, and a methylcobalamin treatment group were compared. To administer methylcobalamin continuously, an osmotic minipump was placed and left in the dorsal subcutaneous space, and methylcobalamin was administered at a dose of 1 mg/kg/day. In an untreated group, physiological saline was administered instead of methylcobalamin according to the same procedure.\nAt 1, 3, 7, and 14 days after the surgery, rats were anesthetized with an anesthetic agent. The left sciatic nerve was collected, fixed with 4% PFA for 7 days and with 20% sucrose for 24 hours, and the fixed nerve was freeze-embedded. The embedded tissue was sliced into a 5-μm-thick slice in a nerve short-axis direction and placed on a glass slide. Slices were obtained from 5 positions of 2.5 mm in the proximal direction from an injured region, the injured region, and 2.5, 5.0, and 7.5 mm in the distal direction. The slices were dried for 1 hour and fixed with 95% methanol for 30 minutes. The fixed slices were blocked and allowed to react with primary antibodies at 4° C. overnight. The cells were further allowed to react with a secondary antibody at room temperature for 1 hour so that the nuclei were labeled with DAPI.\nThe primary antibodies used were a mouse anti-CD68 monoclonal antibody (Abcam), a rabbit anti-iNOS monoclonal antibody (Abcam), a rabbit anti-CD206 monoclonal antibody (Abeam), a rabbit anti-neurofilament 200 (NF 200) polyclonal antibody (SIGMA), and a mouse anti-myelin basic protein (MBP) monoclonal antibody (Calbiochem). The secondary antibodies used were an Alexa 488-labeled goat anti-mouse IgG antibody (Life Technologies), an Alexa 488-labeled goat anti-rabbit IgG antibody (Life Technologies), an Alexa 568-labeled goat anti-mouse IgG antibody (Life Technologies), and an Alexa 568-labeled goat anti-rabbit IgG antibody (Life Technologies).\nEffects of methylcobalamin on nerve regeneration after sciatic nerve injury were analyzed by an immunohistological evaluation method. Specifically, the analysis was carried out as follows. Transvers sections of an injured sciatic nerve obtained at 2 weeks after sciatic nerve injury were used for evaluation. As in the macrophage evaluation, evaluations were carried out for the sections at 2.5 mm in the proximal direction from an injury site, the injury site, and 2.5, 5.0, and 7.5 mm in the distal direction. Regenerated axons were labeled with NF 200, and myelin sheaths were labeled with MBP. The myelination rate of the regenerated axons was calculated by the following formula: Myelination rate (%)=number of myelinated axons per mm^2/number of axons per mm^2×100. More specifically, the analysis was performed in the same manner as in Example 7."}, "[3]": {"tested_on": "photocoagulation-induced cerebral infarction model C57BL/6J mice", "experiment": "Rotarod test in photocoagulation-induced cerebral infarction model", "assay_type": "in vivo, mouse", "experimental": "Eight to 10-week-old male C57BL/6J mice (about 24 g) were used. A photocoagulation-induced cerebral infarction model for laser light irradiation after rose bengal administration was constructed. In this model, the skull of each mouse was drilled to open a hole having a center at 2 mm from the anterior fontanel in the outward direction. At 5 minutes after a photosensitive dye rose bengal was administered, the right motor cortex as a center was irradiated with laser light to create cerebral infarction in the right lateral motor cortex. An osmotic pump (ALZET osmotic pumps, for 2-week operation) was embedded immediately after the creation of the cerebral infarction. The mice were divided into a methylcobalamin treatment group (N=3) and an untreated group (N=4), and rotarod tests (accelerating velocity method) were carried out at 2, 4, 7, 9, 11, and 14 days after the surgery creating cerebral infarction. The time until a mouse fell from a rotarod was measured, and a ratio to a maximum of 300 seconds as baseline was calculated."}, "[4]": {"settings": "5.0 and 7.5 mm in the distal direction, 2 weeks after injury"}, "[5]": {"settings": "2.5 mm in the proximal direction"}, "[6]": {"settings": "injury site, 2 weeks after sciatic nerve injury, 1 mg/kg/day"}}, "data": [{"smiles": "C/C1=C2/[N-][C@H]([C@H](CC(N)=O)[C@@]2(C)CCC(=O)NC[C@@H](C)OP(=O)([O-])O[C@H]2[C@@H](O)[C@@H](n3cnc4cc(C)c(C)cc43)O[C@@H]2CO)[C@]2(C)N=C(/C(C)=C3N=C(/C=C4N=C1[C@@H](CCC(N)=O)C\\4(C)C)[C@@H](CCC(N)=O)[C@]\\3(C)CC(N)=O)[C@@H](CCC(N)=O)[C@]2(C)CC(N)=O.[CH3-].[Co+3]", "note": "[MeCbl, methylcobalamin]", "values": [{"measurement": "Thermal algesimetry test, Time after spying infrared thermal stimulation", "setting": "[1]; 0 days after surgery (before surgery)", "result": 9.99, "unit": "s"}, {"measurement": "right-lower-extremity hyperesthesia (thermal algesimetry test)", "setting": "[1]; 21 and 28 days after the surgery, 1 mg/kg/day osmotic minipump", "result": "significantly improved"}, {"measurement": "Thermal algesimetry test, Time after spying infrared thermal stimulation", "setting": "[1]; 7 days after surgery", "result": 8.59, "unit": "s"}, {"measurement": "Thermal algesimetry test, Time after spying infrared thermal stimulation", "setting": "[1]; 14 days after surgery", "result": 8.86, "unit": "s"}, {"measurement": "Thermal algesimetry test, Time after spying infrared thermal stimulation", "setting": "[1]; 21 days after surgery", "result": 9.61, "unit": "s"}, {"measurement": "Thermal algesimetry test, Time after spying infrared thermal stimulation", "setting": "[1]; 28 days after surgery", "result": 9.92, "unit": "s"}, {"measurement": "myelination rate as compared to the untreated group", "setting": "[2]; [4]", "result": "significant differences"}, {"measurement": "numbers of axons as compared to the untreated group", "setting": "[2]; [4]", "result": "significant differences"}, {"measurement": "Myelination ratio", "setting": "[2]; 2.5 mm in the distal direction", "result": 0.531}, {"measurement": "Number of axons", "setting": "[2]; 2.5 mm in the distal direction", "result": 14478}, {"measurement": "Number of myelinated axons", "setting": "[2]; 2.5 mm in the distal direction", "result": 7620}, {"measurement": "Myelination ratio", "setting": "[2]; [5]", "result": 0.975}, {"measurement": "Number of axons", "setting": "[2]; [5]", "result": 16251}, {"measurement": "Number of myelinated axons", "setting": "[2]; [5]", "result": 15838}, {"measurement": "Myelination ratio", "setting": "[2]; 5.0 mm in the distal direction", "result": 0.253}, {"measurement": "Number of axons", "setting": "[2]; 5.0 mm in the distal direction", "result": 16663}, {"measurement": "Number of myelinated axons", "setting": "[2]; 5.0 mm in the distal direction", "result": 4400}, {"measurement": "Myelination ratio", "setting": "[2]; 7.5 mm in the distal direction", "result": 0.163}, {"measurement": "Number of axons", "setting": "[2]; 7.5 mm in the distal direction", "result": 14678}, {"measurement": "Number of myelinated axons", "setting": "[2]; 7.5 mm in the distal direction", "result": 2473}, {"measurement": "Myelination ratio", "setting": "[2]; Injury site", "result": 0.691}, {"measurement": "Number of axons", "setting": "[2]; Injury site", "result": 14210}, {"measurement": "Number of myelinated axons", "setting": "[2]; Injury site", "result": 9785}, {"measurement": "numbers of axons as compared to the untreated group", "setting": "[2]; [6]", "result": "significantly improved"}, {"measurement": "numbers of myelinated axons as compared to the untreated group", "setting": "[2]; [6]", "result": "significantly improved"}, {"measurement": "rotarod test: time until fall, ratio to a maximum of 300 seconds as baseline", "setting": "[3]; 0 day after PIT operation (baseline)", "result": 0.998}, {"measurement": "rotarod test: time until fall, ratio to a maximum of 300 seconds as baseline", "setting": "[3]; 2 days after PIT operation, osmotic pump", "result": 0.470}, {"measurement": "rotarod test: time until fall, ratio to a maximum of 300 seconds as baseline", "setting": "[3]; 2 days after PIT operation, osmotic pump, listed as methylcobalamin", "result": "significantly improved"}, {"measurement": "rotarod test: time until fall, ratio to a maximum of 300 seconds as baseline", "setting": "[3]; 4 days after PIT operation, osmotic pump", "result": 0.573}, {"measurement": "rotarod test: time until fall, ratio to a maximum of 300 seconds as baseline", "setting": "[3]; 4 days after PIT operation, osmotic pump, listed as methylcobalamin", "result": "significantly improved"}, {"measurement": "rotarod test: time until fall, ratio to a maximum of 300 seconds as baseline", "setting": "[3]; 7 days after PIT operation, osmotic pump", "result": 0.370}, {"measurement": "rotarod test: time until fall, ratio to a maximum of 300 seconds as baseline", "setting": "[3]; 9 days after PIT operation, osmotic pump", "result": 0.437}, {"measurement": "rotarod test: time until fall, ratio to a maximum of 300 seconds as baseline", "setting": "[3]; 9 days after PIT operation, osmotic pump, listed as methylcobalamin", "result": "significantly improved"}, {"measurement": "rotarod test: time until fall, ratio to a maximum of 300 seconds as baseline", "setting": "[3]; 11 days after PIT operation, osmotic pump", "result": 0.521}, {"measurement": "rotarod test: time until fall, ratio to a maximum of 300 seconds as baseline", "setting": "[3]; 14 days after PIT operation, osmotic pump", "result": 0.510}]}]}
